In this experiment the target is T1, Adenosine receptor A1 (Rattus norvegicus, UniProt P25099).
T1 sequence (P25099 whole entry): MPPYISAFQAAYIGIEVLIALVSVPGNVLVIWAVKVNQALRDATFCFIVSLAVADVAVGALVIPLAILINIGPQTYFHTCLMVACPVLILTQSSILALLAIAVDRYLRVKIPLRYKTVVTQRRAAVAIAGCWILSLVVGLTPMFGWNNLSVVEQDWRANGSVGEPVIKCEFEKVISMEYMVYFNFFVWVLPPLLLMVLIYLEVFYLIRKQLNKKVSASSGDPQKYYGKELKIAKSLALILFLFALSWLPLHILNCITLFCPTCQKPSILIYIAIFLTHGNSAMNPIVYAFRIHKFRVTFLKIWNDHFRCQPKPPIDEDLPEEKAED
The experiment in a line: Displacement of [3H]DPCPX from rat brain adenosine A1 receptor. On the technique in general: In a radioligand displacement assay an active substance lowers the binding of a labelled ligand.

Molecules are shown by their SMILES.

As a reminder, the IC50 is the concentration that gives 50% inhibition.

Compound `O=C(O)CCCCCC#C/C=C/CCCCC#C/C=C/Br` returned a half-inhibitory concentration (IC50) of 106 µM.

Values taken from ChEMBL document CHEMBL1144129, “Isolation of xestosterol esters of brominated acetylenic fatty acids from the marine sponge xestospongia testudinaria” (J Nat Prod, 1999).
